Laboratory results: patent US10166218B2, “3-(1H-indol-2-yl)-1H-pyrazolo[3,4-C]pyridines and therapeutic uses thereof” (Samumed, LLC, priority 2015, dated 2019)

Columns and labels:
IL-6 (THP-1 cells) = assay: Inhibition of IL-6 in LPS-stimulated THP-1 human monocyte cells (HTRF); format: cell-based; details: inhibition of IL-6 in LPS-stimulated THP-1 cells, HTRF, 10-point dose-response starting from 10 μM
How it was run: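 Readout is the 665/620 nm HTRF ratio for secreted IL-6, normalized to DMSO wells, with EC50 from a variable-slope four-parameter fit, or % inhibition at 10 μM when above 10 μM. Cells (1% FBS, 24 h beforehand) got compound for 2 h, then LPS 500 ng/mL for 22 h at 37° C; top dose 10 μM, 0.1% DMSO.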

[1] = test system: primary human mesenchymal stem cells (hMSCs); assay: Induction of chondrogenesis in primary human mesenchymal stem cells (chondrogenic nodules); format: cell-based; details: 144 h, 6 days; for EC50: concentration required to induce 50% levels of chondrogenesis of TGF-β3 positive control, read-out: Conc (nM) of 50% TGF-β3 activity; for Emax: nodules, relative to TGF-β3 (10 ng/mL) positive control, read-out: Max. Activity as % TGF-β3 activity
Procedure: Representative compounds were screened using primary human mesenchymal stem cells (hMSCs) to determine their ability to induce chondrogenesis (process by which cartilage is developed).
Primary human mesenchymal stem cells (hMSCs) were purchased from Lonza (Walkersville, Md.) and expanded in Mesenchymal Stem Cell Growth Media (Lonza). Cells between passage 3 and 6 were used for the experiments.
Each compound was dissolved in DMSO as a 10 mM stock and used to prepare compound source plates. Serial dilution (1:3, 6-point dose-response curves from 2700 nM to 10 nM) and compound transfer was performed using the ECHO 550 (Labcyte, Sunnyvale, Calif.) into 96-well clear bottom assay plates (Greiner Bio-One) with appropriate DMSO backfill for a final DMSO concentration of 0.03%. hMSCs were plated at 20,000 cells/well in 250 μL/well Incomplete Chondrogenic Induction Medium (Lonza; DMEM, dexamethasone, ascorbate, insulin-transferrin-selenium [ITS supplement], gentamycin-amphotericin [GA-1000], sodium pyruvate, proline and L-glutamine). TGF-β3 (10 ng/mL) was used as a positive control for differentiation while negative control wells were treated with 75 nL DMSO for normalization and calculating EC50 values. Cells were incubated at 37° C. and 5% CO2 for 6 days. To image chondrogenic nodules, the cells were fixed using 4% formaldehyde (Electron Microscopy Sciences), and stained with 2 μg/mL Rhodamine B (Sigma-Aldrich) and 20 μM Nile Red (Sigma-Aldrich) [Johnson K., et. al, A Stem Cell-Based Approach to Cartilage Repair, Science, (2012), 336(6082), 717-721]. The nodules imaged (4 images per well at 4× magnification) by excitation at 531 nm and emission at 625 nm and quantified using the CellInsight CX5 (Thermo Scientific). Number of nodules in each well was normalized to the average of 3 DMSO treated wells on the same plate using Excel (Microsoft Inc.). The normalized averages (fold change over DMSO) of 3 replicate wells for each compound concentration were calculated. Due to solubility limitations of some of the compounds, curve fitting was incomplete leading to inaccurate EC50 determinations.
Using TGF-β3 as a positive control, the concentration of representative compounds required to induce 50% levels of chondrogenesis is reported. In addition, the maximum activity of each compound and the respective dose that each compound reached maximum chondrogenesis activity is reported.

EC50 (IL-6 (THP-1 cells)) [nM]	EC50 [1] [nM]	Structure (SMILES)	Emax [1] [%]
856	30	CCNCc1cncc(-c2cc3c(-c4cc5c(-c6cc(F)cc(NCCN(C)C)c6)cccc5[nH]4)n[nH]c3cn2)c1 [Compound 454, N^1-(3-(2-(5-(5-((Ethylamino)methyl)pyridin-3-yl)-1H-pyrazolo[3,4-c]pyridin-3-yl)-1H-indol-4-yl)-5-fluorophenyl)-N^2,N^2-dimethylethane-1,2-diamine]	294
286	10	CN(C)CCNc1cc(F)cc(-c2cccc3[nH]c(-c4n[nH]c5cnc(-c6cncc(NC(=O)C(C)(C)C)c6)cc45)cc23)c1 [Compound 456, N-(5-(3-(4-(3-((2-(Dimethylamino)ethyl)amino)-5-fluorophenyl)-1H-indol-2-yl)-1H-pyrazolo[3,4-c]pyridin-5-yl)pyridin-3-yl)pivalamide]	87
657		CN(C)CCNc1cc(F)cc(-c2cccc3[nH]c(-c4n[nH]c5cnc(-c6cncc(CN(C)C)c6)cc45)cc23)c1 [Compound 461, N^1-(3-(2-(5-(5-((Dimethylamino)methyl)pyridin-3-yl)-1H-pyrazolo[3,4-c]pyridin-3-yl)-1H-indol-4-yl)-5-fluorophenyl)-N^2,N^2-dimethylethane-1,2-diamine]	52
1560	10	CN(C)CCNc1cc(F)cc(-c2cccc3[nH]c(-c4n[nH]c5cnc(-c6ccccn6)cc45)cc23)c1 [Compound 476, N^1-(3-Fluoro-5-(2-(5-(pyridin-2-yl)-1H-pyrazolo[3,4-c]pyridin-3-yl)-1H-indol-4-yl)phenyl)-N^2,N^2-dimethylethane-1,2-diamine]	89
1180	900	Cc1ccncc1-c1cc2c(-c3cc4c(-c5cc(F)cc(CNS(C)(=O)=O)c5)cccc4[nH]3)n[nH]c2cn1 [Compound 481, N-(3-Fluoro-5-(2-(5-(4-methylpyridin-3-yl)-1H-pyrazolo[3,4-c]pyridin-3-yl)-1H-indol-4-yl)benzyl)methanesulfonamide]	152
2980	900	CS(=O)(=O)NCc1cc(F)cc(-c2cccc3[nH]c(-c4n[nH]c5cnc(-c6cncnc6)cc45)cc23)c1 [Compound 503, N-(3-Fluoro-5-(2-(5-(pyrimidin-5-yl)-1H-pyrazolo[3,4-c]pyridin-3-yl)-1H-indol-4-yl)benzyl)methanesulfonamide]	102
1460		CN(C)CCOc1cncc(-c2cc3c(-c4cc5c(-c6cccnc6)cccc5[nH]4)n[nH]c3cn2)c1 [Compound 591, N,N-Dimethyl-2-((5-(3-(4-(pyridin-3-yl)-1H-indol-2-yl)-1H-pyrazolo[3,4-c]pyridin-5-yl)pyridin-3-yl)oxy)ethan-1-amine]	36
44	300	Cn1cc(-c2cc3c(-c4cc5c(-c6ccncc6)cccc5[nH]4)n[nH]c3cn2)cn1 [Compound 600, 5-(1-Methyl-1H-pyrazol-4-yl)-3-(4-(pyridin-4-yl)-1H-indol-2-yl)-1H-pyrazolo[3,4-c]pyridine]	138
1650		O=C(CC1CCNCC1)Nc1cncc(-c2cc3c(-c4cc5c(-c6ccccn6)cccc5[nH]4)n[nH]c3cn2)c1 [Compound 621, 2-(Piperidin-4-yl)-N-(5-(3-(4-(pyridin-2-yl)-1H-indol-2-yl)-1H-pyrazolo[3,4-c]pyridin-5-yl)pyridin-3-yl)acetamide]	57
232	10	CN(C)CCNc1cc(F)cc(-c2cccc3[nH]c(-c4n[nH]c5cnc(-c6cncc(O)c6)cc45)cc23)c1 [Compound 817, 5-(3-(4-(3-((2-(Dimethylamino)ethyl)amino)-5-fluorophenyl)-1H-indol-2-yl)-1H-pyrazolo[3,4-c]pyridin-5-yl)pyridin-3-ol]	66
